Activity calls are given as the source filed them.
Experiments:
Assay type in all cases: functional
[1] = cells
[2] = target: Benomyl/methotrexate resistance protein (Candida albicans, UniProt P28873); experiment: CaMdr1 efflux pump inhibitor potency, dose response, singleplex, Cherry Pick1 hits (AID 588608)
[3] = target: T1, Multidrug resistance protein CDR2 (Candida albicans (strain SC5314 / ATCC MYA-2876) (Yeast), UniProt P78595); experiment: CaCDR2 efflux pump inhibitors in yeast, dose response, S. cerevisiae AD1-8u, singleplex, Cherry Pick1 hits (AID 588604)
T1 sequence (P78595 whole entry): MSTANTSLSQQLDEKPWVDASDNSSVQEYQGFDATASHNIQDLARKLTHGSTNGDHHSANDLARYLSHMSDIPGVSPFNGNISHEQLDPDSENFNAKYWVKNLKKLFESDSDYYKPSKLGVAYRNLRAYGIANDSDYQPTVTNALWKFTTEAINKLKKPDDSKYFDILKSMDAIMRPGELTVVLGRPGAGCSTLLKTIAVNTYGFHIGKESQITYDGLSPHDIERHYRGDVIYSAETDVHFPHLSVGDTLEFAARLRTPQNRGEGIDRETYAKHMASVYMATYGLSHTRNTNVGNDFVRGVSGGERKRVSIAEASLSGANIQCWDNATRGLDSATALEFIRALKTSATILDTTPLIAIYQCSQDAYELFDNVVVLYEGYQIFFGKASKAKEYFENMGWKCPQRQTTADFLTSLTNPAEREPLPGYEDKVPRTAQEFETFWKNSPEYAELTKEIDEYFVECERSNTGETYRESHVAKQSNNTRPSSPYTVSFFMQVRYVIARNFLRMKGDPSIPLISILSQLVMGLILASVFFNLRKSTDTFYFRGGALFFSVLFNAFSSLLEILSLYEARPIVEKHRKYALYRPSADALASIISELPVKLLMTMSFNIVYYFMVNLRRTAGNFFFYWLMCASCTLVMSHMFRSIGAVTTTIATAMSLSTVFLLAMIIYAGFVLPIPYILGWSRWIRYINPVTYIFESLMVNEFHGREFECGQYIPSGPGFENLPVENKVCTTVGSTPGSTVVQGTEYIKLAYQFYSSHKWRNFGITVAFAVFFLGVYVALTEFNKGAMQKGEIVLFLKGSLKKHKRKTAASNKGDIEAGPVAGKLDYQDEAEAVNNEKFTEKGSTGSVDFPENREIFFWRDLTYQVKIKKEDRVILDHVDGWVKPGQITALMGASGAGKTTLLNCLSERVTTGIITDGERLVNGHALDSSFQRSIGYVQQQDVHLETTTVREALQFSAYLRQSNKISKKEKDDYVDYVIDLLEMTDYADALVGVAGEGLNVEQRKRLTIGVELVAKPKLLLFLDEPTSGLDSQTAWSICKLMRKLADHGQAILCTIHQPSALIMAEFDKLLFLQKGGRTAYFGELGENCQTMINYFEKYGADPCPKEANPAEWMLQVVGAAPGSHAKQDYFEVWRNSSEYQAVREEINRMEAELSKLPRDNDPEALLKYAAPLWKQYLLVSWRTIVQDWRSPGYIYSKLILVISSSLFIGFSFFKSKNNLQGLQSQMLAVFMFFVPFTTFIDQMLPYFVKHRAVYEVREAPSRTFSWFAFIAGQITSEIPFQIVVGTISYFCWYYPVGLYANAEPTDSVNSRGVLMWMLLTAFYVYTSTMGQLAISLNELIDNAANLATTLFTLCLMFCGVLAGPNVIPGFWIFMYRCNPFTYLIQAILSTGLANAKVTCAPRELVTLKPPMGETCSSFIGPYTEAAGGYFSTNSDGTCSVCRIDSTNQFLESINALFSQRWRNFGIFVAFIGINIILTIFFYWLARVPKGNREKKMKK

[4] = target: Induced myeloid leukemia cell differentiation protein Mcl-1 (Homo sapiens, UniProt Q07820)
Chain of Induced myeloid leukemia cell differentiation protein Mcl-1 (Q07820 whole entry): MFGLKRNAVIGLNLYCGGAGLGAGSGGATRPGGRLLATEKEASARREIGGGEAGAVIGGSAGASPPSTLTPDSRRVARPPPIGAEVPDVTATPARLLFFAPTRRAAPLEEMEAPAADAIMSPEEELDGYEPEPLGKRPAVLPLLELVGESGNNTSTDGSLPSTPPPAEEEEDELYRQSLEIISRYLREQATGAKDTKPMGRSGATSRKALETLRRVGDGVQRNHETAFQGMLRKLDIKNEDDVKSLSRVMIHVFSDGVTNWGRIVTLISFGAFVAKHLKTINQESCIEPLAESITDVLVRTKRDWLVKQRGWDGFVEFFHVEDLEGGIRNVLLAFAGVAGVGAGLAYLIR

[5] = target: T2, Low molecular weight phosphotyrosine protein phosphatase (Homo sapiens, UniProt P24666); settings: read-out: IC50_Mean
T2 sequence (P24666 whole entry): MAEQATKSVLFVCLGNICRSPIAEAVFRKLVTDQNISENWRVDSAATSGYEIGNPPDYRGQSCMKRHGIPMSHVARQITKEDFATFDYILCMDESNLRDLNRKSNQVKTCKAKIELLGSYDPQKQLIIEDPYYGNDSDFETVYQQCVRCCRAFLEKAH

[6] = target: T2, Low molecular weight phosphotyrosine protein phosphatase; settings: read-out: IC50_Mean; remark: listed apart in the source
[7] = target: T3, Tyrosine-protein phosphatase non-receptor type 22 (Homo sapiens, UniProt Q9Y2R2); experiment: LYP phosphatase inhibition for selectivity, dose response, selectivity assay for LMPTP inhibitor project, biochemical, fluorescence, LYP catalytic domain (AID 652006); settings: read-out: IC50_Mean
T3 sequence (Q9Y2R2 whole entry): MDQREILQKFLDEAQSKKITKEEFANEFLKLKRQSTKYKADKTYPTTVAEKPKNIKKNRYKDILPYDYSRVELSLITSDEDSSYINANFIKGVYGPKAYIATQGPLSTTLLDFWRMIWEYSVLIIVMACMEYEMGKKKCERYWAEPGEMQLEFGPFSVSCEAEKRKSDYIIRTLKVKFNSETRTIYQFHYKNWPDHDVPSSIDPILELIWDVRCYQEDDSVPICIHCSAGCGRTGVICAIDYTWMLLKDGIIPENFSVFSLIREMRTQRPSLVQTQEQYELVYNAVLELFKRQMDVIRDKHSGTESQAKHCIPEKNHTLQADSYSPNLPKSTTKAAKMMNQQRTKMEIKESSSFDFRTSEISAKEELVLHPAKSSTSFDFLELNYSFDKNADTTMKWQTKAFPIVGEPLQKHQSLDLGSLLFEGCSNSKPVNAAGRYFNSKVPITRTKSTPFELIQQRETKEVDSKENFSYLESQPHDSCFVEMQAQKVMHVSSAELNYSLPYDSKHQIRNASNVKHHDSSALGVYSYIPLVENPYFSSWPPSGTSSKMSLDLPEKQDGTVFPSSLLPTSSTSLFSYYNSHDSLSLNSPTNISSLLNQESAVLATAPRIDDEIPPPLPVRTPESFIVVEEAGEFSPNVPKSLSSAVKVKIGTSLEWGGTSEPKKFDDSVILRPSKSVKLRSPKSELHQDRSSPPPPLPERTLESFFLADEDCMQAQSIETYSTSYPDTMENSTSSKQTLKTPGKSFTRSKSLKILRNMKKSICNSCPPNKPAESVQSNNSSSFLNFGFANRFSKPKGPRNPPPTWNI

[8] = target: DNA dC->dU-editing enzyme APOBEC-3G (Homo sapiens, UniProt Q9HC16); experiment: APOBEC3G deaminase inhibitors, SAR follow-up, biochemical, fluorescence, single-stranded DNA substrate (AID 602136); settings: read-out: IC50_Mean
Chain of DNA dC->dU-editing enzyme APOBEC-3G (Q9HC16 whole entry): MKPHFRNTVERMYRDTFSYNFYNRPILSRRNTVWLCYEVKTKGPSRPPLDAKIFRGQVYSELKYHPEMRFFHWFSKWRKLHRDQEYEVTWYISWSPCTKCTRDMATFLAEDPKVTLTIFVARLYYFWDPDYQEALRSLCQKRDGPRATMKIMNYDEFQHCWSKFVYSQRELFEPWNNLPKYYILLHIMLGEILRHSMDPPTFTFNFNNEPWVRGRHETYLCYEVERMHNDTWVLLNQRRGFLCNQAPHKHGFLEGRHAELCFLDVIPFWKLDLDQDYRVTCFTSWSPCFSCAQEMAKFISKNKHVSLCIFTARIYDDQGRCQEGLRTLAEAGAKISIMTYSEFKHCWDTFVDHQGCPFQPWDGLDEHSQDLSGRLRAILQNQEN

[9] = target: DNA dC->dU-editing enzyme APOBEC-3A (Homo sapiens, UniProt P31941); experiment: SAR analysis of small molecule inhibitors of APOBEC3A DNA Deaminase via a fluorescence-based single-stranded DNA deaminase assay.; settings: read-out: IC50_Mean
Chain of DNA dC->dU-editing enzyme APOBEC-3A (P31941 whole entry): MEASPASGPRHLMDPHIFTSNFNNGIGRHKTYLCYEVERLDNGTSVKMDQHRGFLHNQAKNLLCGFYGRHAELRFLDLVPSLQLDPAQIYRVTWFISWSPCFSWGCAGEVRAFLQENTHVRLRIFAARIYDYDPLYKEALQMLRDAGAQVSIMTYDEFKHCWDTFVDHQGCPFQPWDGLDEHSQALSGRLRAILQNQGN

Chain of Benomyl/methotrexate resistance protein (P28873 whole entry): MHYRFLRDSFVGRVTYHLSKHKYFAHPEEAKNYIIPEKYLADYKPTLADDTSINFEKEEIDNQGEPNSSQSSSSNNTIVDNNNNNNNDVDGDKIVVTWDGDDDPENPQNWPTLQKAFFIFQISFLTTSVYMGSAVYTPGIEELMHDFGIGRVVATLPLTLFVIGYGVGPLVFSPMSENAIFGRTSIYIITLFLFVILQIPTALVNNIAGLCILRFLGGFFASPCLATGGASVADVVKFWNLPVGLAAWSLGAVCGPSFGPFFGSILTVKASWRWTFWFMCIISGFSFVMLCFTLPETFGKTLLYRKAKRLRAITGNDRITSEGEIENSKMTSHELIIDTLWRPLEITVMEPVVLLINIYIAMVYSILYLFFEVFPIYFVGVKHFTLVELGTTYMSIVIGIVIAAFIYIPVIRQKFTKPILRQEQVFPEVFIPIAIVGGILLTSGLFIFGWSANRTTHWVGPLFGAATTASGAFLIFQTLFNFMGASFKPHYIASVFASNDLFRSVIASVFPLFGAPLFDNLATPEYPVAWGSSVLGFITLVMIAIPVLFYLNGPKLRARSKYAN

Compound: COc1ccc(CCOC(=O)c2ccc(N)c([N+](=O)[O-])c2)cc1
- IC50 [1]: 21 µM (active)
- EC50 [2]: 0.011 µM (active)
- EC50 [3]: 4.29 µM (active)

Compound: COc1ccc(-c2ccc(/C=N/NC(=O)c3cccnc3)o2)c([N+](=O)[O-])c1
- IC50 [4]: 3.42 µM (active)
- IC50 [5]: > 80 µM (inactive)
- IC50 [6]: 12 µM (active)
- IC50 [7]: 38.5 µM (inactive)

Compound: Cc1ccc(-c2nnc(SC(C)C(=O)NCc3ccco3)n2C)cc1 (stereo unspecified)
- IC50 [8]: > 99 µM (inactive)
- IC50 [9]: > 99 µM (inactive)

Compound: CCC(C)n1c(SCC(=O)NCc2ccco2)nnc1-c1cccc(S(=O)(=O)N2CCOCC2)c1 (stereo unspecified)
- IC50 [8]: > 99 µM (inactive)
- IC50 [9]: > 99 µM (inactive)
